Experimental data: ChEMBL document CHEMBL1155194, “Synthesis and characterization of environment-sensitive fluorescent ligands for human 5-HT1A receptors with 1-arylpiperazine structure” (J Med Chem, 2009)

biological target: T1, 5-hydroxytryptamine receptor 1A (Homo sapiens, UniProt P08908); assay: biochemical
T1 sequence (P08908 whole entry): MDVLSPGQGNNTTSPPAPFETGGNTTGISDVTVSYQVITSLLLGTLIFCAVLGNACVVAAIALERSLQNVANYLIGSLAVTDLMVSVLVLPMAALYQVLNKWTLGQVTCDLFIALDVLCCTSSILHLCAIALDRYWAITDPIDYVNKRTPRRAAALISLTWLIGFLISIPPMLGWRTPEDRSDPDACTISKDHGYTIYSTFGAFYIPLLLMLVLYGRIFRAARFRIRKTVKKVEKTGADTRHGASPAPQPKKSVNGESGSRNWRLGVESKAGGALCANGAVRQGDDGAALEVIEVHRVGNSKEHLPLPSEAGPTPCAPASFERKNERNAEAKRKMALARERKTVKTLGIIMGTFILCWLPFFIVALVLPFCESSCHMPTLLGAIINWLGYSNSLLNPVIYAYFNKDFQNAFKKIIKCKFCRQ
Description: Displacement of [3H]8-OH-DPAT from human recombinant 5HT1A receptor expressed in HEK293 cells after 120 mins

Row | SMILES | Ki
1 | COc1ccccc1N1CCN(CCCN2C(=O)c3cccc4c(N)ccc(c34)C2=O)CC1 | 116 nM
2 | COc1ccccc1N1CCN(CCNS(=O)(=O)c2cccc3c(N(C)C)cccc23)CC1 | 73 nM
3 | COc1ccccc1N1CCN(CCCCNS(=O)(=O)c2cccc3c(N(C)C)cccc23)CC1 | 151 nM
4 | COc1ccccc1N1CCN(CCCCCNS(=O)(=O)c2cccc3c(N(C)C)cccc23)CC1 | 54 nM
5 | COc1ccccc1N1CCN(CCN2C(=O)c3cccc4c(N)ccc(c34)C2=O)CC1 | 44 nM

The next compounds have a lower Ki than those just listed; values first:

Row | Ki | SMILES
6 | 15 nM | COc1ccccc1N1CCN(CCN2C(=O)c3ccc(N(C)C)cc3C2=O)CC1
7 | 0.47 nM | COc1ccccc1N1CCN(CCCN2C(=O)c3ccc(N(C)C)cc3C2=O)CC1
8 | 7.8 nM | COc1ccccc1N1CCN(CCCCCN2C(=O)c3ccc(N(C)C)cc3C2=O)CC1
9 | 6.8 nM | COc1ccccc1N1CCN(CCCCN2C(=O)c3cccc4c(N)ccc(c34)C2=O)CC1
10 | 29 nM | COc1ccccc1N1CCN(CCCNS(=O)(=O)c2cccc3c(N(C)C)cccc23)CC1
11 | 0.67 nM | COc1ccccc1N1CCN(CCCCCN2C(=O)c3cccc4c(N)ccc(c34)C2=O)CC1
12 | 0.5 nM | COc1ccccc1N1CCN(CCCCN2C(=O)c3ccc(N(C)C)cc3C2=O)CC1
